The results in this text go back to patent publication US20040229791A1, “Compositions and methods of modulating TGF-beta activity by fatty acids” (priority 2002, published 2004).

For one experiment, the target named is T1, TGF-β1-α2M* complex (Homo sapiens, UniProt P01023).
T1 construct: was purified from pooled citrate-treate human plasma; from tissue; host or cells: pooled citrate-treated human plasma
T1 sequence (P01023 24-1474): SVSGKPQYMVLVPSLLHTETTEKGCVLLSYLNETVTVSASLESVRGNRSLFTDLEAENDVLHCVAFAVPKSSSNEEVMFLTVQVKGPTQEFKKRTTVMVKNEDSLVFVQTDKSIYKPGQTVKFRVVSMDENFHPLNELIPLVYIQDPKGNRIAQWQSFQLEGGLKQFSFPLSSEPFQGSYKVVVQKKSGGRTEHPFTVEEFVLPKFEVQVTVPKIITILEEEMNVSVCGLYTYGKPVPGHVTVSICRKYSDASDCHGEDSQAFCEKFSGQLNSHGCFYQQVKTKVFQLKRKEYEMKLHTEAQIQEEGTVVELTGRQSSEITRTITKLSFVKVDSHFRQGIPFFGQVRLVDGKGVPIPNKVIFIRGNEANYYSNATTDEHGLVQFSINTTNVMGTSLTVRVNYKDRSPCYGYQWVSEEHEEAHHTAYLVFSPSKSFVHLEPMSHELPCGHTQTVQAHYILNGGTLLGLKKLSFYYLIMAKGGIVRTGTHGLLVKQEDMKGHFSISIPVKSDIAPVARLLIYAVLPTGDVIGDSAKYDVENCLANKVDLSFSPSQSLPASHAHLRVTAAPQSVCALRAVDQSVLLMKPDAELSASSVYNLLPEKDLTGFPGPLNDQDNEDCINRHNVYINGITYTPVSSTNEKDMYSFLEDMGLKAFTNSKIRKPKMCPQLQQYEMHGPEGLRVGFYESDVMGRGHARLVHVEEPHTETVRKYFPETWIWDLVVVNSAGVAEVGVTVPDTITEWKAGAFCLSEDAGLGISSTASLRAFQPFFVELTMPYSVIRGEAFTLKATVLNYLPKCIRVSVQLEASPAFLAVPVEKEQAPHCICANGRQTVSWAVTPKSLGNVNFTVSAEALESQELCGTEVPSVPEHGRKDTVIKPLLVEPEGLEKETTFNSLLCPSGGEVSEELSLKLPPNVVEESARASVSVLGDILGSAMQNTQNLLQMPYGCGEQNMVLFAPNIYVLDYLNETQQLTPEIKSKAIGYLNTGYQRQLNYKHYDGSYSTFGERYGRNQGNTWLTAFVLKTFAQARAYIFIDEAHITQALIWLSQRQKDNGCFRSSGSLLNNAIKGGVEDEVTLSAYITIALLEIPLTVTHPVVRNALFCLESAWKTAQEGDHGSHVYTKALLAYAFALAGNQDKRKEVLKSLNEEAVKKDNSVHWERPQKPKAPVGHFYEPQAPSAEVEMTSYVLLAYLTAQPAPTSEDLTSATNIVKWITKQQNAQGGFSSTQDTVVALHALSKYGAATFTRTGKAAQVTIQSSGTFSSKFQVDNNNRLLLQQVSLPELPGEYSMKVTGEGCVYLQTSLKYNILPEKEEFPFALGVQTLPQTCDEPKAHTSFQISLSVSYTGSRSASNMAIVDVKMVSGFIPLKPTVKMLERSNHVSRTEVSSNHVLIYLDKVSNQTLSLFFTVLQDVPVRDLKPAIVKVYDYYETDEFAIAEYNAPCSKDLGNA
Kind of experiment: Inhibition of 125I-TGF-β1 and α2M* complex formation (5% non-denaturing PAGE, autoradiography). Type of experiment: binding. As to conditions: for IC50: ~1 nM 125I-TGF-β1, 10 μg α2M* in 0.05 ml, 30 min room temperature, non-denaturing PAGE, read-out: IC50 for inhibiting complex formation between TGF-β1 and α2M*. The protocol: Saturated and unsaturated fatty acids are present in plasma and tissues (25,26). The effects of various concentrations of saturated fatty acids on the formation of complexes between ^125I-TGF ? β1 and ? 2M* were examined. ^125I-TGF- ? 1 (1 nM) was incubated μg/ml) in the presence of various concentrations of n-caprylic acid ([…]), lauric acid (12 carbon atoms), myristic acid (14 carbon atoms), palmitic acid (16 carbon atoms) and stearic acid (18 carbon atoms). After 30 min at room temperature, the reaction mixture was analyzed by 5% non-denaturing PAGE and autoradiography, a standard method form determining complex formation between TGF-β and α2M* (12). […] At 100 μM, it inhibited 20% of the complex formation between TGF ? β1 and α2M*. Esterification consistently abolished the inhibitory activities of the fatty acids.
Complex formation of ^125I-TGF-β and ? 2M*—The reaction mixture contained 10 μg of . α2M*, ˜1 nM of ^125I-TGF- ? 1, ^125I-TGF ? β2 or ^125I-TGF ? acids (dissolved in 100% ethanol) in 0.05 ml of 50 mM HEPES-NaOH buffer, pH 7.4. The final concentration of ethanol in the reaction mixture was 0.5%. These fatty acids and fatty acid derivatives were soluble under the experimental conditions. After 30 min at room temperature, the complex formation of ^125I-TGF- ? and. α2M* was determined by 5% non-denaturing polyacrylamide gel electrophoresis (PAGE) or by 7.5% SDS-PAGE following cross-linking by 0.6 mM DSS. After electrophoresis, the gel was stained with Coomassie blue and analyzed by autoradiography. The ^125I-TGF- ? - ? 2M* complex which co-migrated with free ? 2M* was quantified using a PhosphoImager (Fuji).

The test system of the next experiment is Mv1Lu cells. Put plainly: [Methyl-3H]-thymidine incorporation assay, TGF-β2-induced growth inhibition. Type of experiment: cell-based, mink. As to conditions: 1 pM, absence of α2M*. The source says: The levels of TGF ? β and ? 2M* also increase dramatically. α2M* is capable of inhibiting TGF- ? activity by forming complexes with TGF- ? and thus preventing it from binding to TGF ? β receptors in cells involved. Fatty acids may potentiate TGF ? β activity by blocking complex formation of ? 2M* and TGF ? β under these conditions. To test this possibility, we determined the effects of arachidonic acid on ^125I-TGF- ? 2 binding (in the presence and absence of α2M*) to Mv1Lu cells. ? 2M* is known to inhibit TGF- ? 2 more strongly than TGF ? β1 binding to T receptors in cells (13). Various concentrations of ^125I-TGF- ? 2 were preincubated with 200 μg/ml of ? 2M* in the presence or absence of 30 μM arachidonic acid for 30 min prior to the performance of binding assays in Mv1Lu cells. […] The residual ^125I-TGF- ? binding associated with the cells after ? 2M* inhibition was mainly due to non-specific binding of ^125I-TGF- ? 2. […] In the presence of 200 μg/ml of ? 2M*, the dose-response curve of TGF ? β2 shifted to the right. […] Addition of arachidonic acid at 0.5 and 1 μM reversed the inhibitory effect of. α2M* on TGF- ? 2-induced growth inhibition as measured by [methyl-^3H]-thymidine incorporation.
[Methyl-^3H]-Thymidine Incorporation Assay—Mv1Lu cells were plated at a cell density of 7.5×10^4 cells/well in DMEM containing 0.1% fetal calf serum in 48-well cluster dishes. After 4 hr at 37° C. (to allow cell adherence), cells were treated with various concentrations of TGF- ? 2,2M* (0 or 200 μg/ml) and arachidonic acid ([…] or 1 μM). After 1h at 37° C., cells were pulsed with 1 μCi/ml [methyl-^3H]-thymidine for 2 hr. The [methyl-^3H]-th incorporation into cellular DNA was carried out in triplicate as described previously (23).
(Dividing cells build labelled thymidine or BrdU into new DNA.)

By IC50 is commonly meant the concentration needed to halve the response being measured. Take `CCCCCCCC/C=C\CCCCCCCC(=O)O` [oleic acid]: the half-inhibitory concentration (IC50) on TGF-β1-α2M* complex was 5.2 ± 2 µM.
Still for that read-out and setting: then `CCCCCCCCCCCCCCCC(=O)O` [palmitic acid], with 8.5 ± 1 µM.
Regarding `CCCCCC/C=C\CCCCCCCC(=O)O` [palmitoleic acid], at TGF-β1-α2M* complex, the “activity compared with saturated counterparts of identical chain length” value was “weaker than their saturated counterparts”.
Regarding `CCCCCCCCCCCCCCCCCC(=O)O` [stearic acid], on TGF-β1-α2M* complex, the IC50 came to 6.6 ± 0.9 µM.
`CCCCC/C=C\C/C=C\C/C=C\CCCCC(=O)O` [γ-linolenic acid]: on TGF-β1-α2M* complex, the IC50 amounted to 8 ± 2 µM.

B1: TGF-β2: transforming growth factor β isoform 2, 25-kDa dimeric protein (protein, UniProt P61812 303-414, looked up)
Transforming growth factor …: ALDAAYCFRNVQDNCCLRPLYIDFKRDLGWKWIHEPKGYNANFCAGACPYLWSSDTQHSRVLSLYNTINPEASASPCCVSQDLEPLTILYYIGKTPKIEQLSNMIVKSCKCS
As for B1, in the experiment with Mv1Lu cells, the “inhibition of [methyl-3H]-thymidine incorporation into DNA” value is listed as “approximately 25%”.
